Measurements published in PubChem BioAssay (NCI).
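Protocol summary: plate cells (96-well), add compound at 5 concentrations, incubate 48 h, interpolate endpoints linearly. TGI: total growth inhibition.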

Legend:
Test in all cases: NCI-60 cell line screen, 48 h
SK-MEL-5 melanoma = test system: SK-MEL-5 melanoma
OVCAR-8 ovarian = test system: OVCAR-8 ovarian
NCI-H23 lung = test system: NCI-H23 lung
NCI-H522 lung = test system: NCI-H522 lung
EKVX NSCLC = test system: EKVX NSCLC
LOX IMVI melanoma = test system: LOX IMVI melanoma
SK-MEL-2 melanoma = test system: SK-MEL-2 melanoma
SF-295 CNS = test system: SF-295 CNS
A498 renal = test system: A498 renal
HS 578T breast = test system: HS 578T breast
HCT-116 colon = test system: HCT-116 colon
MALME-3M melanoma = test system: MALME-3M melanoma
SF-268 CNS = test system: SF-268 CNS
NCI-H226 lung = test system: NCI-H226 lung
RXF 393 renal = test system: RXF 393 renal
PC-3 prostate = test system: PC-3 prostate
COLO 205 colon = test system: COLO 205 colon
U251 CNS = test system: U251 CNS
TK-10 renal = test system: TK-10 renal
HCC-2998 colon = test system: HCC-2998 colon
SNB-75 CNS = test system: SNB-75 CNS
BT-549 breast = test system: BT-549 breast
HT29 colon = test system: HT29 colon
SN12C renal = test system: SN12C renal
NCI-H460 lung = test system: NCI-H460 lung
K-562 leukemia = test system: K-562 leukemia
KM12 colon = test system: KM12 colon
IGROV1 ovarian = test system: IGROV1 ovarian
OVCAR-3 ovarian = test system: OVCAR-3 ovarian
SR leukemia = test system: SR leukemia
UACC-257 melanoma = test system: UACC-257 melanoma
UACC-62 melanoma = test system: UACC-62 melanoma
SK-MEL-28 melanoma = test system: SK-MEL-28 melanoma
CAKI-1 renal = test system: CAKI-1 renal
MCF7 breast = test system: MCF7 breast
786-0 renal = test system: 786-0 renal
DU-145 prostate = test system: DU-145 prostate
ACHN renal = test system: ACHN renal
SNB-19 CNS = test system: SNB-19 CNS
MDA-MB-435 = test system: MDA-MB-435
MDA-N = test system: MDA-N
MOLT-4 leukemia = test system: MOLT-4 leukemia
UO-31 renal = test system: UO-31 renal
HCT-15 colon = test system: HCT-15 colon
RPMI-8226 leukemia = test system: RPMI-8226 leukemia
OVCAR-4 ovarian = test system: OVCAR-4 ovarian
HOP-62 NSCLC = test system: HOP-62 NSCLC
T-47D breast = test system: T-47D breast
NCI/ADR-RES ovarian = test system: NCI/ADR-RES ovarian
SW-620 colon = test system: SW-620 colon
OVCAR-5 ovarian = test system: OVCAR-5 ovarian
HL-60(TB) leukemia = test system: HL-60(TB) leukemia
MDA-MB-231 breast = test system: MDA-MB-231 breast

SMILES: CC(=O)OCC1OC(SC2=N/C(=C\c3cc4c(=O)c5ccccc5sc4s3)C(=O)N2c2ccccc2)C(OC(C)=O)C(OC(C)=O)C1OC(C)=O (stereo not drawn)
- TGI (SK-MEL-5 melanoma): > 100 µM
- TGI (OVCAR-8 ovarian): > 100 µM
- TGI (NCI-H23 lung): > 100 µM
- TGI (NCI-H522 lung): > 100 µM
- TGI (EKVX NSCLC): > 100 µM
- TGI (LOX IMVI melanoma): > 100 µM
- TGI (SK-MEL-2 melanoma): > 100 µM
- TGI (SF-295 CNS): > 100 µM
- TGI (A498 renal): > 100 µM
- TGI (HS 578T breast): > 100 µM
- TGI (HCT-116 colon): > 100 µM
- TGI (MALME-3M melanoma): > 100 µM
- TGI (SF-268 CNS): > 100 µM
- TGI (NCI-H226 lung): > 100 µM
- TGI (RXF 393 renal): > 100 µM
- TGI (PC-3 prostate): > 100 µM
- TGI (COLO 205 colon): > 100 µM
- TGI (U251 CNS): 62.8 µM
- TGI (TK-10 renal): > 100 µM
- TGI (HCC-2998 colon): > 100 µM
- TGI (SNB-75 CNS): > 100 µM
- TGI (BT-549 breast): > 100 µM
- TGI (HT29 colon): > 100 µM
- TGI (SN12C renal): > 100 µM
- TGI (NCI-H460 lung): > 100 µM
- TGI (K-562 leukemia): > 100 µM
- TGI (KM12 colon): > 100 µM
- TGI (IGROV1 ovarian): > 100 µM
- TGI (OVCAR-3 ovarian): > 100 µM
- TGI (SR leukemia): > 100 µM
- TGI (UACC-257 melanoma): > 100 µM
- TGI (UACC-62 melanoma): > 100 µM
- TGI (SK-MEL-28 melanoma): > 100 µM
- TGI (CAKI-1 renal): > 100 µM
- TGI (MCF7 breast): > 100 µM
- TGI (786-0 renal): > 100 µM
- TGI (DU-145 prostate): > 100 µM
- TGI (ACHN renal): > 100 µM
- TGI (SNB-19 CNS): > 100 µM
- TGI (MDA-MB-435): > 100 µM
- TGI (MDA-N): > 100 µM
- TGI (MOLT-4 leukemia): 54.4 µM
- TGI (UO-31 renal): > 100 µM
- TGI (HCT-15 colon): > 100 µM
- TGI (RPMI-8226 leukemia): > 100 µM
- TGI (OVCAR-4 ovarian): > 100 µM
- TGI (HOP-62 NSCLC): > 100 µM
- TGI (T-47D breast): > 100 µM
- TGI (NCI/ADR-RES ovarian): > 100 µM
- TGI (SW-620 colon): > 100 µM
- TGI (OVCAR-5 ovarian): > 100 µM
- TGI (HL-60(TB) leukemia): 53.3 µM
- TGI (MDA-MB-231 breast): > 100 µM
